# Data taken from patent publication US20250345512A1, “COMBINATION SODIUM-GLUCOSE COTRANSPORTER INHIBITOR (SGLTI) INSULIN THERAPY FOR GLYCEMIC CONTROL IN TYPE 1 DIABETES” (University of Virginia Patent Foundation, priority 2022, published 2025).
# Tested on: participants with T1D
# Experiment: Randomized crossover clinical trial (NCT04201496): CGM glycemic outcomes with 5 mg daily empagliflozin adjunctive to AID (Control-IQ, CIQ) or PLGS (Basal-IQ, BIQ)
# Assay type: in vivo, human
# Details: for % CGM time <50 mg/dL (<2.8 mmol/L) / % CGM time <60 mg/dL (<3.3 mmol/L) / % CGM time <70 mg/dL (<3.9 mmol/L) / % CGM time >180 mg/dL (>10.0 mmol/L) / % CGM time >250 mg/dL (>13.9 mmol/L) / % CGM time >300 mg/dL (>16.7 mmol/L) / CGM HBGI / CGM LBGI: median (IQR)
# Method: FIG. 2 presents a study analysis relative to baseline, control IQ (CIQ) (e.g., AID), and basal IQ (BIQ) (e.g., PLGS) implementation, according to investigation that is demonstrable of one or more embodiments herein. Therein, an experimental arm (G1, G2) providing an initial daily dose of 5 mg empagliflozin (EMPA) is depicted against a control arm (G3, G4) without such dosing (NOEMPA). Relative characteristics of the analysis are provided below.
# Study Design: A single-center, randomized, controlled, unblinded, crossover clinical trial (NCT04201496) compared four parallel groups, two groups in the experimental arm (EMPA) with 5 mg daily empagliflozin as adjunctive therapy to PLGS or AID, and two groups in the control arm (NOEMPA) with no drug and with a PLGS system (Basal-IQ, Tandem Diabetes Care) or AID system (Control-IQ, Tandem Diabetes Care). The groups within each arm differed from one another in the order of the randomly assigned crossover technological intervention, relative to PLGS being followed by AID or AID being followed by PLGS, respectively (FIG. 4). The study protocol was approved by the University of Virginia Institutional Review Board (IRB). An investigational device exemption (IDE), including an investigational new drug (IND) application for empagliflozin, was approved by the FDA. Safety aspects were overseen by an external data and safety monitoring board (DSMB). Participants: Major inclusion criteria were T1D treated with insulin for at least one year, use of continuous subcutaneous insulin infusion therapy for at least six months, age 18-65 yrs., no use of glucose lowering agents other than insulin, and Hb1Ac<9% (75 mmol/mol). Randomization: A (1:1:1:1) randomization assigned participants to either Group 1, AID-EMPA (4 weeks) followed by PLGS-EMPA (2 weeks), Group 2, PLGS-EMPA (2 weeks) followed by AID-EMPA (4 weeks), Group 3, AID-NOEMPA (4 weeks) followed by PLGS-NOEMPA (2 weeks), and Group 4, PLGS-NOEMPA (2 weeks) followed by AID-NOEMPA (4 weeks). Procedures: After confirmation of eligibility, participants underwent study equipment and medication training (experimental arm), or only study equipment training (control arm). Study equipment consisted of Dexcom G6® CGM (Dexcom Inc., San Diego, CA), Contour® Next blood glucose (Ascensia Diabetes Care, Basel, Switzerland) and Precision Xtra® blood ketone meters (Abbott, Alameda, CA) with their respective test strips; infusion sets, and the use of the t:slim X2™ insulin pump with Basal-IQ or Control-IQ technologies (Tandem Diabetes Care, San Diego, CA), according to randomization. […] Participants in the experimental arm were asked to record two days of baseline ketone values before initiating the use of the study drug. Thereafter, participants were directed to use the study CGM with EMPA for 1-2 weeks. A tolerance to the medication was assessed prior to the starting of the next study phase, including adherence to the protocol, ketone testing 2-4 times per day with monitored values not greater than 0.6 mmol/L on at least two successive occasions (the first testing upon waking in a fasted state), no adverse events relating to perineal infection or symptomatic postural hypotension, and no evidence of significant hypoglycemia <54 mg/dL, or any other listed adverse effects of the medication. Participants in the control arm were directed to use the study CGM for 1-2 weeks. Sample Size: The total sample size was projected to be 40 participants, assuming 1) 1:1:1:1 randomization; 2) 90% power and type 1 error a=0.01, further reinforcing the feasibility of hierarchical analyses. The projected recruitment sample was n=50, to accommodate up to 20% attrition rate without sacrificing statistical power. Analytical methods: For the primary analysis, TIR during the day in the 4-week AID period was compared between the two EMPA groups versus the two NOEMPA groups using a linear mixed-effects regression model while adjusting for pre-randomization HbAlc and age. […]
# [1] = overall, CIQ-EMPA vs. CIQ-NOEMPA, BIQ-EMPA vs. BIQ-NOEMPA
# [2] = overall, PLGS-EMPA (see Tables 4 and 5)
# [3] = overnight, CIQ-EMPA vs. BIQ-NOEMPA, BIQ-EMPA vs. CIQ-NOEMPA
# [4] = overnight, CIQ-EMPA vs. CIQ-NOEMPA, BIQ-EMPA vs. BIQ-NOEMPA
# [5] = overnight, PLGS-EMPA compared to PLGS-NOEMPA
compound,measurement,setting,value
"OC[C@H]1O[C@@H](c2ccc(Cl)c(Cc3ccc(O[C@H]4CCOC4)cc3)c2)[C@H](O)[C@@H](O)[C@@H]1O [BIQ-EMPA, empagliflozin]",Difference: CGM LBGI,"overall, CIQ-EMPA vs. BIQ-NOEMPA, BIQ-EMPA vs. CIQ-NOEMPA",0.2
same,Difference: CGM HBGI,[1],−4.3
same,Difference: CGM LBGI,[1],0.1
same,Difference: CGM SD,[1],-14.3 mg/dL
same,decrease in mean glucose overall,[2],24 mg/dL
same,decrease in percent time in hyperglycemia,[2],18.6%
same,% CGM time <70-140 mg/dL (<3.9-7.8 mmol/L),"overall, n = 16, mean ± SD",56.8 ± 16.5%
same,% CGM time <70-180 mg/dL (<3.9-10.0 mmol/L),"overall, n = 16, mean ± SD",79 ± 15.7%
same,CGM CV (%),"overall, n = 16, mean ± SD",32.1 ± 3.7%
same,CGM SD,"overall, n = 16, mean ± SD",46 ± 14.6 mg/dL
same,% CGM time <50 mg/dL (<2.8 mmol/L),"overall, n = 16",0(0-0.4) %
same,% CGM time <60 mg/dL (<3.3 mmol/L),"overall, n = 16",0.5(0.2-0.9) %
same,% CGM time <70 mg/dL (<3.9 mmol/L),"overall, n = 16",1.7(0.9-2.7) %
same,% CGM time >180 mg/dL (>10.0 mmol/L),"overall, n = 16",15(6.7-22.7) %
same,% CGM time >250 mg/dL (>13.9 mmol/L),"overall, n = 16",1.7(0.2-3.6) %
same,% CGM time >300 mg/dL (>16.7 mmol/L),"overall, n = 16",0.2(0-0.6) %
same,CGM HBGI,"overall, n = 16",3.3(1.8-4.7)
same,CGM LBGI,"overall, n = 16",0.7(0.6-1)
same,Difference (95% CI): % CGM time <50 mg/dL (<2.8 mmol/L),[3],−0.4 percentage points
same,Difference (95% CI): % CGM time >180 mg/dL (>10.0 mmol/L),[3],−5.1 percentage points
same,Difference (95% CI): % CGM time >300 mg/dL (>16.7 mmol/L),[3],−0.3 percentage points
same,Difference (95% CI): CGM CV (%),[3],−3.1%
same,Difference (95% CI): CGM HBGI,[3],−1.1
same,Difference (95% CI): CGM LBGI,[3],0.3
same,Difference (95% CI): CGM SD,[3],-8.2 mg/dL
same,Difference (95% CI): Mean CGM glucose,[3],-9.8 mg/dL
same,Difference (95% CI): % CGM time >180 mg/dL (>10.0 mmol/L),[4],−18.2 percentage points
same,Difference (95% CI): % CGM time >250 mg/dL (>13.9 mmol/L),[4],−13.9 percentage points
same,Difference (95% CI): % CGM time >300 mg/dL (>16.7 mmol/L),[4],−4.8 percentage points
same,Difference (95% CI): CGM HBGI,[4],−6.2
same,Difference (95% CI): CGM LBGI,[4],0.2
same,Difference (95% CI): CGM SD,[4],-17.2 mg/dL
same,decrease in time in hyperglycemia,[5],7.6%
same,increase in percent TIR,[5],17%
same,% CGM time 70-140 mg/dL (3.9-7.8 mmol/L),"overnight, n = 16, mean ± SD",54 ± 21%
same,% CGM time 70-180 mg/dL (3.9-10.0 mmol/L),"overnight, n = 16, mean ± SD",76 ± 21%
same,CGM CV (%),"overnight, n = 16, mean ± SD",30.5 ± 4.2%
same,CGM SD,"overnight, n = 16, mean ± SD",44.5 ± 14 mg/dL
same,Mean CGM glucose,"overnight, n = 16, mean ± SD",145 ± 41 mg/dL
same,% CGM time <50 mg/dL (<2.8 mmol/L),"overnight, n = 16",0(0-0.5) %
same,% CGM time <60 mg/dL (<3.3 mmol/L),"overnight, n = 16",0.5(0.1-1.1) %
same,% CGM time <70 mg/dL (<3.9 mmol/L),"overnight, n = 16",1.5(0.4-2.7) %
same,% CGM time >180 mg/dL (>10.0 mmol/L),"overnight, n = 16",16.2(7-30.8) %
same,% CGM time >250 mg/dL (>13.9 mmol/L),"overnight, n = 16",0.1(0-2.4) %
same,% CGM time >300 mg/dL (>16.7 mmol/L),"overnight, n = 16",0(0-0.2) %
same,CGM HBGI,"overnight, n = 16",3.3(2.1-5.2)
same,CGM LBGI,"overnight, n = 16",0.7(0.4-1.4)
same,"night-time in range, h out of 8 h","overnight, out of 8 h of the night-time, listed as PLGS-EMPA",6 h
